Source: PubChem BioAssay AID489041 (Sanford-Burnham Center for Chemical Genomics, 2010)
Activity calls are given as the source filed them. No rule for the calls is given here.

Each compound was assayed on HEK-293T NF-kB luciferase reporter counterscreen, luminescence (assay: inhibitors of HEK-293T NF-kB luciferase – HEK-293T cells, luminescence, counter-screen for T-cell antigen receptor NF-kB inhibitors, dose response (AID 489041)).

Question: For `Cc1ccc(O)c(NC(=O)CCC2CCCCC2)c1`, which IC50 is on record?
Answer: > 80 µM (inactive)

Question: `Cc1cc(C)cc(NC(=O)c2ccc([N+](=O)[O-])o2)c1` was tested. Which IC50 did it give?
Answer: 31.5 µM (inactive)

Question: Which IC50 does the source give for `CCCC(=O)NC(c1ccc(N(C)C)cc1)c1ccc2cccnc2c1O` (stereo unspecified) here?
Answer: > 80 µM (inactive)

Question: How did the IC50 turn out when `COc1cc(C2C(C#N)=C(N)Oc3cc(N(C)C)ccc32)cc2c1OCO2` (stereo unspecified) was run?
Answer: 3.56 µM

Question: With `COc1ccc(Nc2cc(C)nc(-n3nc(C)cc3C)n2)cc1` as the compound, how does the IC50 read?
Answer: 6.55 µM

Question: How did the IC50 turn out when `CCOC(=O)/C=C/S(=O)(=O)c1ccc(NC(C)=O)cc1` was run?
Answer: 20.1 µM (inactive)

Question: `CCO[C@H]1OC(C(=O)NCc2nc3ccccc3[nH]2)=C[C@@H](C2CC2)[C@@H]1CCCO` was tested. Which IC50 did it give?
Answer: 41.1 µM (inactive)

Question: With `Cc1ccc(Oc2ccc(OCC(=O)Nc3ccncc3)cc2)cc1` as the compound, how does the IC50 read?
Answer: 0.62 µM

Question: How did the IC50 turn out when `COc1ccc(/C=C/C(=O)c2cc(F)ccc2OC(=O)c2ccccc2)cc1OC` was run?
Answer: < 0.16 µM

Question: `O=C(Nc1ccc(N2CCN(C(=O)c3ccc(Cl)cc3)CC2)cc1)c1ccc2c(c1)OCCO2` was tested. Which IC50 did it give?
Answer: 3.1 µM

Question: Which IC50 does the source give for `CCO[C@@H]1OC(C(=O)NCc2nc3ccccc3[nH]2)=C[C@H](C(C)(C)C)[C@H]1CCCO` here?
Answer: 1.37 µM

Question: `Cc1cc(/C=C2\Sc3ccccc3N2C)cc(C)[n+]1CC1CCCO1` (stereo unspecified) was tested. Which IC50 did it give?
Answer: 3.74 µM

Question: Which IC50 does the source give for `O=C(Nc1nc2ccc(S(=O)(=O)N3CCCC3)cc2s1)C1CCCCC1` here?
Answer: 2.8 µM

Question: `Cc1cc(-c2ccc(C)c(S(=O)(=O)N3CCN(c4ccc([N+](=O)[O-])cc4)CC3)c2)on1` was tested. Which IC50 did it give?
Answer: > 80 µM (inactive)

Question: For `CCOC(=O)c1[nH]c(C)c(C(=O)Nc2ccccc2C)c1C`, which IC50 is on record?
Answer: 67.3 µM (inactive)

Question: How did the IC50 turn out when `N#Cc1ccc(-c2cccs2)nc1SCc1cccnc1` was run?
Answer: 0.94 µM

Question: Which IC50 does the source give for `COc1ccc(C(=O)c2ccc(N(C)C)cc2)c(OC)c1` here?
Answer: 71.1 µM (inactive)

Question: `Cn1nc(-c2ccccn2)nc2c(=O)n(C)c(=O)nc1-2` was tested. Which IC50 did it give?
Answer: 5.68 µM

Question: For `COc1ccc(C(=O)N(C)Cc2cnn(Cc3ccccc3)c2)cc1S(=O)(=O)N1CCOCC1`, which IC50 is on record?
Answer: 22.9 µM (inactive)

Question: With `Cc1ccc2[nH]c3c(c2c1)CCCC3NC(=O)CCl` (stereo unspecified) as the compound, how does the IC50 read?
Answer: 7.68 µM

Question: `Cc1csc2sc(-c3ccnc(SCC(=O)NCc4ccccc4)n3)c(C)c12` was tested. Which IC50 did it give?
Answer: 3.8 µM

Question: How did the IC50 turn out when `COc1cc(Nc2ccc(C)cc2)c([N+](=O)[O-])nc1[N+](=O)[O-]` was run?
Answer: 19.9 µM

Question: Which IC50 does the source give for `COc1ccc(Cn2c(SCc3ccc(C)cc3)nc3cc(OC)c(OC)cc3c2=N)cc1Cl` here?
Answer: > 80 µM (inactive)

Question: How did the IC50 turn out when `CC1CCCN(c2ncnc3c2cnn3-c2ccc(Cl)cc2)C1` (stereo unspecified) was run?
Answer: 8.88 µM

Question: `COc1cc(-c2noc(C)c2C#Cc2ccsc2)cc(OC)c1OC` was tested. Which IC50 did it give?
Answer: 4.06 µM

Question: Which IC50 does the source give for `O=C(c1ccccc1)c1cc([N+](=O)[O-])ccc1N1CCOCC1` here?
Answer: 17.1 µM

Question: Which IC50 does the source give for `CCCC1=Nc2cc(C(=O)NCCCOCC)ccc2Sc2ccccc21` here?
Answer: 0.97 µM

Question: With `Cc1noc(C)c1CSc1nc2ccccc2c(=O)n1-c1ccccc1` as the compound, how does the IC50 read?
Answer: 9.04 µM

Question: With `CCCCOc1ccccc1C1CC(=O)NC2=C1C(=O)CCC2` (stereo unspecified) as the compound, how does the IC50 read?
Answer: 12.8 µM

Question: With `CC(=O)Nc1ccc(S(=O)(=O)N2CCCc3ccccc32)cc1` as the compound, how does the IC50 read?
Answer: 26.6 µM (inactive)

Question: How did the IC50 turn out when `Cc1cc(NC(=O)COC(=O)c2ccc(S(=O)(=O)N3CCCc4ccccc43)cc2)no1` was run?
Answer: 28.3 µM (inactive)

Question: For `COc1ccc(OC)c(-c2nnc3n2N=C(c2ccc(OC)c(OC)c2)CS3)c1`, which IC50 is on record?
Answer: 0.65 µM

Question: With `CSc1ccc(COC(=O)c2cc([N+](=O)[O-])ccc2N2CCOCC2)cc1` as the compound, how does the IC50 read?
Answer: 1.7 µM

Question: For `N/C(=N\OCc1ccc([N+](=O)[O-])cc1)c1ccccn1`, which IC50 is on record?
Answer: 1.78 µM

Question: Which IC50 does the source give for `CCCC(=O)Nc1nc2ccc(S(=O)(=O)N3CCCCC3)cc2s1` here?
Answer: 3.55 µM

Question: How did the IC50 turn out when `COC(=O)c1cnc(Oc2ccc(NC(=O)NC(=O)c3c(F)cccc3Cl)cc2)cc1C(F)(F)F` was run?
Answer: 25.8 µM (inactive)

Question: With `COC(=O)c1cn(NC(=O)c2cc([N+](=O)[O-])ccc2F)c(=O)c2ccccc12` as the compound, how does the IC50 read?
Answer: 4.34 µM

Question: How did the IC50 turn out when `Cc1oc(-c2ccc(Cl)cc2)nc1CS(=O)CC(=O)NCCCN1CCN(Cc2ccccc2)CC1` (stereo unspecified) was run?
Answer: 4.13 µM

Question: How did the IC50 turn out when `CCc1ccc(N2C(=O)C(Cl)=C(Nc3ccc(C(=O)N4CCCC4)cc3)C2=O)cc1` was run?
Answer: 66.9 µM (inactive)

Question: `Cc1ccc(C(=O)c2cc([N+](=O)[O-])ccc2N2CCOCC2)cc1C` was tested. Which IC50 did it give?
Answer: 10.3 µM

Question: For `C/C=C(\C)C(=O)N[C@@H](c1ccccc1)[C@@H](O)C(=O)O[C@H]1C[C@@]2(O)[C@@H](OC(=O)c3ccccc3)C3[C@](C)(C(=O)[C@H](O)C(=C1C)C2(C)C)[C@@H](O)C[C@H]1OC[C@@]31OC(C)=O` (stereo partly specified), which IC50 is on record?
Answer: > 80 µM (inactive)

Question: How did the IC50 turn out when `NS(=O)(=O)c1ccc(Sc2nc3ccccc3s2)c([N+](=O)[O-])c1` was run?
Answer: 7.35 µM

Question: How did the IC50 turn out when `COc1ccc([C@H]2CC(=O)C=C(c3ccc(OC)cc3OC)C2)cc1` was run?
Answer: 9.99 µM

Question: For `Cc1c(C)c2ccc(OCC(=O)Nc3ccccn3)c(C)c2oc1=O`, which IC50 is on record?
Answer: 1.78 µM

Question: Which IC50 does the source give for `CCOc1ccccc1C(=O)N1CCN(c2cccc(Cl)c2)CC1` here?
Answer: 2.28 µM

Question: How did the IC50 turn out when `O=C(Nc1ccc(Oc2cccnc2)nc1)c1ccc(C(F)(F)F)cc1` was run?
Answer: 1.52 µM

Question: With `Cc1ccc(N(C)S(=O)(=O)c2ccc(-c3cnc(C4CC4)o3)cc2)cc1` as the compound, how does the IC50 read?
Answer: 4.53 µM

Question: `CCc1ccc(S(=O)(=O)/N=C2\C=C(Nc3ccc(O)cc3)C(=O)c3ccccc32)cc1` was tested. Which IC50 did it give?
Answer: 1.1 µM

Question: For `Cc1cc(C(=O)N2CC=C(c3ccccc3)CC2)c2ccccc2n1`, which IC50 is on record?
Answer: 5.69 µM

Question: `Cc1ccc(NS(=O)(=O)c2ccc(-c3cnc(C4CC4)o3)cc2)c(C)c1` was tested. Which IC50 did it give?
Answer: 1.47 µM

Question: Which IC50 does the source give for `CCC/C(O)=C1\C(=O)CC(C)(C)CC1=Nc1ccc(OC)cc1OC` here?
Answer: 18.4 µM

Question: `CCOCCOC(=O)c1[nH]c2c(c1C)C(=O)CC(c1cccs1)C2` (stereo unspecified) was tested. Which IC50 did it give?
Answer: 4.6 µM

Question: How did the IC50 turn out when `Cc1ccc(O)c(N=Nc2nccs2)c1` was run?
Answer: > 80 µM (inactive)

Question: For `C[C@@H]1C=CC(=O)O[C@@H]1c1ccc(Cl)cc1`, which IC50 is on record?
Answer: 34 µM (inactive)

Question: Which IC50 does the source give for `COC(=O)C1CN(C#N)N(c2ccc(Cl)cc2)C12c1ccccc1-c1ccccc12` (stereo unspecified) here?
Answer: 15.7 µM

Question: `COc1cc(C(=O)Nc2ccc3c(c2)CCN3C(C)=O)cc(OC)c1OC` was tested. Which IC50 did it give?
Answer: 4.83 µM
